What all share (type): binding
The target of one assay is T1, FGF-R1C ECD (Homo sapiens, UniProt P11362).
T1 sequence (P11362 22-376 limits assumed): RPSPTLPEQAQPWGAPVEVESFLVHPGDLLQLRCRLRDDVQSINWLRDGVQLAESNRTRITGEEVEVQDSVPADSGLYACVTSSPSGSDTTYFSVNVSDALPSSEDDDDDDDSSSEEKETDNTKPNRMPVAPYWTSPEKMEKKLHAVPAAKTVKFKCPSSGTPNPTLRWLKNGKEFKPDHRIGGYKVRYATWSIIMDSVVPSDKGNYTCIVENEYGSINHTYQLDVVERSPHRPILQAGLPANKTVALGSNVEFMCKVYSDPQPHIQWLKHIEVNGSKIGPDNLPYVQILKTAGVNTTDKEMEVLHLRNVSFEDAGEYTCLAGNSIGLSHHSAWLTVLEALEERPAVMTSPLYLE
The assay is described as follows: biochemical. Further details: DNA constructs for the extracellular domain (ECD) of human FGF-; HPC4 (C); made in house; host or cells: HEK 293-6E. The procedure:
(§1) KD affinity binding measurements were obtained by biolayer interferometry (BLI) instruments (Fortebio Octet HTX, or Sartorius Octet RH16 using either 8 or 16 channel mode.
(§2) For single concentration binding experiments, 50 μM peptide stocks in folding buffer were diluted 1:50 in mRNA display selection buffer (PBS pH7.4 supplemented with 0.05% Tween-20 and 0.01% BSA) in either a 96 well black plate, or a 384 well tilted bottom microplate (ForteBio). Biotinylated FGF-R protein was loaded onto Streptavidin-functionalised biosensors (ForteBio) and immersed into ~1 μM peptide to obtain association kinetics curves. Dissociation kinetics curves were obtained by subsequent immersion of ligand-associated loaded sensors into a 1:50 dilution of folding buffer in mRNA display selection buffer. Fitted KD data was adjusted for concentration as determined by UPLC-CAD.
(§3) For accurate multi-concentration KD determination, dilution series of each peptide were made, and association and dissociation kinetics curves were obtained as above for each concentration to fit a multi-point KD binding model. Data collection and analysis was performed using the Octet Instrument Control […]
(§4) concentration assay kinetics curves shown in supplementary Figure S 19-24.

A further assay addresses T2, FGF-R4 ECD (Homo sapiens, UniProt P22455).
T2 construct: DNA constructs for the extracellular domain (ECD) of human FGF-; HPC4 (C); made in house; host or cells: HEK 293-6E
T2 sequence (P22455 22-369 limits assumed): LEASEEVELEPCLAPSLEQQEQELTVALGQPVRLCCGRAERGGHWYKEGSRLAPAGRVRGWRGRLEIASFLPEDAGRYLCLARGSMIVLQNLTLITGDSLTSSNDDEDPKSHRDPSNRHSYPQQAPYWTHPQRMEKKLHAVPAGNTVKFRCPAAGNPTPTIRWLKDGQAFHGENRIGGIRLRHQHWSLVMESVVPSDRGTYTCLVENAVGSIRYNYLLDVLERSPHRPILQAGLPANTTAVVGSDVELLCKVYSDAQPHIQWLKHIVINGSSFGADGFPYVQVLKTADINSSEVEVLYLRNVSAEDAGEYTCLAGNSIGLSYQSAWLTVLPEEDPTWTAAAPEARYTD
The experiment in a line: single concentration BLI of crude peptides. The settings on record: crude T18 selection 1 (1:1:1) peptides, single concentration BLI (Table S4); read-out: KD (4). The procedure:
as §1
as §2, with “UPLC-CAD. […]” for “UPLC-CAD.”

The next assay concerns the target T3, FGF-R3C ECD (Homo sapiens, UniProt P22607).
T3 sequence (P22607 23-375 limits assumed): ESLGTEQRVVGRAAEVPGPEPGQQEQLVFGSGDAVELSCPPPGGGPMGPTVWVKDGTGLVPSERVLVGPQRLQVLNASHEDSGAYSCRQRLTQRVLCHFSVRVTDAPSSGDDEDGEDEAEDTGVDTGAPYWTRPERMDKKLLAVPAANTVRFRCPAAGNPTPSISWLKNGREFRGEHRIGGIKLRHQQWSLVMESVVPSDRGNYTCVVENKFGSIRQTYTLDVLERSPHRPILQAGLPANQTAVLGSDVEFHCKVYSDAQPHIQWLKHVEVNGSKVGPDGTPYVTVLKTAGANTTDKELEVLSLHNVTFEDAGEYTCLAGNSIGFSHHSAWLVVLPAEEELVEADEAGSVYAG
The assay is described as follows: biochemical. Further details: DNA constructs for the extracellular domain (ECD) of human FGF-; HPC4 (C); made in house; host or cells: HEK 293-6E. How it is done: as §1, §2, §3, §4

pKd: −log10 of the molar value. Positions of bridges follow the written chain, without caps; N, C: chain ends. Residues, ends and D or L forms follow the SMILES beside them.

For orientation: pKd means −log10 of the Kd, conventionally taken in molar units. For the molecule `CSCC[C@H](NC(C)=O)C(=O)N[C@H]1CSSC[C@@H](C(=O)NCC(=O)N[C@@H](CO)C(=O)NCC(=O)N[C@@H](CO)C(=O)N[C@@H](CCC(=O)O)C(=O)N[C@@H](CCC(=O)O)C(=O)NCC(=O)N[C@@H](CO)C(=O)NCC(=O)N[C@@H](CO)C(=O)N[C@@H](CC(=O)O)C(=O)N[C@@H](Cc2ccc(O)cc2)C(=O)N[C@@H](CCCCN)C(=O)N[C@@H](CC(=O)O)C(=O)N[C@@H](CC(=O)O)C(=O)N[C@@H](CC(=O)O)C(=O)N[C@@H](CC(=O)O)C(=O)N[C@@H](CCCCN)C(N)=O)NC(=O)[C@H](CCCNC(=N)N)NC(=O)[C@H](CO)NC(=O)[C@H](Cc2c[nH]cn2)NC(=O)[C@H](CCCCN)NC(=O)[C@H](CC(C)C)NC(=O)[C@H](Cc2c[nH]c3ccccc23)NC(=O)[C@H](CC(C)C)NC(=O)[C@H](CCCCN)NC(=O)[C@H](Cc2ccc(O)cc2)NC(=O)[C@H](Cc2ccc(O)cc2)NC(=O)[C@H](C(C)C)NC(=O)[C@H](C)NC1=O` (Ac-MCAVYYKLWLKHSRCGSGSEEGSGSDYKDDDDK-NH2; disulfide 2-15), the pKd on FGF-R1C ECD is below 5.00; at FGF-R4 ECD it was 8.15.

In the case of `CC[C@H](C)[C@@H]1NC(=O)[C@H](Cc2c[nH]cn2)NC(=O)[C@@H](NC(=O)[C@H](CCSC)NC(C)=O)CSSC[C@@H](C(=O)NCC(=O)N[C@@H](CO)C(=O)NCC(=O)N[C@@H](CO)C(=O)N[C@@H](CC(=O)O)C(=O)N[C@@H](Cc2ccc(O)cc2)C(=O)N[C@@H](CCCCN)C(=O)N[C@@H](CC(=O)O)C(=O)N[C@@H](CC(=O)O)C(=O)N[C@@H](CC(=O)O)C(=O)N[C@@H](CC(=O)O)C(=O)N[C@@H](CCCCN)C(N)=O)NC(=O)[C@H](C(C)C)NC(=O)[C@H](Cc2ccc(O)cc2)NC(=O)[C@H](Cc2c[nH]cn2)NC(=O)[C@H](Cc2ccccc2)NC(=O)[C@H](CCC(N)=O)NC(=O)[C@H](CC(N)=O)NC(=O)[C@H](CC(N)=O)NC(=O)[C@H](Cc2ccccc2)NC(=O)[C@H](Cc2ccc(O)cc2)NC(=O)[C@H](Cc2c[nH]c3ccccc23)NC1=O` (Ac-MCHIWYFNNQFHYVCGSGSDYKDDDDK-NH2; disulfide 2-15), the pKd at FGF-R1C ECD was below 5.00; at FGF-R4 ECD, 8.22.

On to `CC[C@H](C)[C@@H]1NC(=O)[C@H](Cc2c[nH]cn2)NC(=O)[C@H](CCCNC(=N)N)NC(=O)[C@H](CCCCN)NC(=O)[C@@H](NC(=O)[C@H](CCSC)NC(C)=O)CSSC[C@@H](C(=O)NCC(=O)N[C@@H](CO)C(=O)NCC(=O)N[C@@H](CO)C(=O)N[C@@H](CCC(=O)O)C(=O)N[C@@H](CCC(=O)O)C(=O)NCC(=O)N[C@@H](CO)C(=O)NCC(=O)N[C@@H](CO)C(=O)N[C@@H](CC(=O)O)C(=O)N[C@@H](Cc2ccc(O)cc2)C(=O)N[C@@H](CCCCN)C(=O)N[C@@H](CC(=O)O)C(=O)N[C@@H](CC(=O)O)C(=O)N[C@@H](CC(=O)O)C(=O)N[C@@H](CC(=O)O)C(=O)N[C@@H](CCCCN)C(N)=O)NC(=O)[C@H](C(C)C)NC(=O)[C@H](Cc2ccc(O)cc2)NC(=O)[C@H](CC(C)C)NC(=O)[C@H](CCC(N)=O)NC(=O)[C@H](Cc2c[nH]c3ccccc23)NC(=O)[C@H](Cc2ccc(O)cc2)NC(=O)[C@H](CCCNC(=N)N)NC1=O` (Ac-MCKRHIRYWQLYVCGSGSEEGSGSDYKDDDDK-NH2; disulfide 2-14), for which the negative-log Kd (pKd) is 6.08 at FGF-R3C ECD and 6.58 at FGF-R1C ECD.

With `CC[C@H](C)[C@@H]1NC(=O)[C@H](CCC(=O)O)NC(=O)[C@H](CCCNC(=N)N)NC(=O)[C@@H](NC(=O)[C@H](CCSC)NC(C)=O)CSSC[C@@H](C(=O)NCC(=O)N[C@@H](CO)C(=O)NCC(=O)N[C@@H](CO)C(=O)N[C@@H](CC(=O)O)C(=O)N[C@@H](Cc2ccc(O)cc2)C(=O)N[C@@H](CCCCN)C(=O)N[C@@H](CC(=O)O)C(=O)N[C@@H](CC(=O)O)C(=O)N[C@@H](CC(=O)O)C(=O)N[C@@H](CC(=O)O)C(=O)N[C@@H](CCCCN)C(N)=O)NC(=O)[C@H](Cc2ccccc2)NC(=O)[C@H](C)NC(=O)[C@H](CCCNC(=N)N)NC(=O)[C@H](Cc2ccc(O)cc2)NC(=O)[C@H](CC(C)C)NC(=O)[C@H](CCC(N)=O)NC(=O)[C@H](Cc2c[nH]c3ccccc23)NC(=O)[C@H](Cc2ccc(O)cc2)NC(=O)[C@H](CCCNC(=N)N)NC1=O` (Ac-MCREIRYWQLYRAFCGSGSDYKDDDDK-NH2; disulfide 2-15), the pKd on FGF-R3C ECD and at FGF-R1C ECD was below 5.00 throughout.

On to `CC[C@H](C)[C@@H]1NC(=O)[C@H](CCC(=O)O)NC(=O)[C@H](Cc2ccc(O)cc2)NC(=O)[C@@H](NC(=O)[C@H](CCSC)NC(C)=O)CSSC[C@@H](C(=O)NCC(=O)N[C@@H](CO)C(=O)NCC(=O)N[C@@H](CO)C(=O)N[C@@H](CC(=O)O)C(=O)N[C@@H](Cc2ccc(O)cc2)C(=O)N[C@@H](CCCCN)C(=O)N[C@@H](CC(=O)O)C(=O)N[C@@H](CC(=O)O)C(=O)N[C@@H](CC(=O)O)C(=O)N[C@@H](CC(=O)O)C(=O)N[C@@H](CCCCN)C(N)=O)NC(=O)[C@H](C(C)C)NC(=O)[C@H](CCCNC(=N)N)NC(=O)[C@H](CCC(N)=O)NC(=O)[C@H](CC(C)C)NC(=O)[C@H](CCCCN)NC(=O)[C@H](Cc2ccc(O)cc2)NC(=O)[C@H](Cc2c[nH]c3ccccc23)NC(=O)[C@H]([C@@H](C)CC)NC1=O` (Ac-MCYEIIWYKLQRVCGSGSDYKDDDDK-NH2; disulfide 2-14), for which the pKd on FGF-R3C ECD and on FGF-R1C ECD was below 5.00 each time.

In the case of `CC[C@H](C)[C@@H]1NC(=O)CNC(=O)[C@H]([C@@H](C)O)NC(=O)[C@H](CO)NC(=O)[C@H]([C@@H](C)CC)NC(=O)[C@H](CC(N)=O)NC(=O)[C@H](CCCCN)NC(=O)[C@H](Cc2ccc(O)cc2)NC(=O)[C@@H](NC(=O)[C@H](CCSC)NC(C)=O)CSSC[C@@H](C(=O)NCC(=O)N[C@@H](CO)C(=O)NCC(=O)N[C@@H](CO)C(=O)N[C@@H](CC(=O)O)C(=O)N[C@@H](Cc2ccc(O)cc2)C(=O)N[C@@H](CCCCN)C(=O)N[C@@H](CC(=O)O)C(=O)N[C@@H](CC(=O)O)C(=O)N[C@@H](CC(=O)O)C(=O)N[C@@H](CC(=O)O)C(=O)N[C@@H](CCCCN)C(N)=O)NC(=O)[C@H](Cc2ccc(O)cc2)NC(=O)[C@H](CC(C)C)NC(=O)[C@H](Cc2ccccc2)NC1=O` (Ac-MCYKNISTGIFLYCGSGSDYKDDDDK-NH2; disulfide 2-14), the pKd on FGF-R3C ECD and on FGF-R1C ECD was below 5.00 in each case.
